# Experimental data from publication PMC12040169 (PLOS Biology, 2025).
# Assay: in vitro
# Conditions: human, hela cells, % viability
row,Compound,"viability at 28.5 h, 10 µM [%]"
1,COc1ccc2c(c1)nc1n2CCC1O (stereo not shown) [CBK115449],96.9
2,CCNC(=O)Nc1cc2cccnc2nc1-c1cc(F)cc(F)c1 [CBK070638],97
3,CC(C)(C)OC(=O)NC(C)(C)C(=O)N1C[C@H](C(=O)N2CCC3(CC2)CN(S(C)(=O)=O)c2ccccc23)[C@@H](c2nc3ccccc3s2)C1 [CBK136737],91.5
4,O=C(NCc1c(Cl)cccc1Cl)N(Cc1cccnc1)Cc1ccc2c(c1)OCO2 [CBK159450],96.8
5,COCc1cc(CN2CCN(C)CC2)c(O)c2ncccc12 [CBK263546],85.1
6,CCc1nn(CC(=O)N(CC)CC)c(=O)c2cc3sc(C)cc3n12 [CBK284121],86.2
7,CCOc1ccc(/C=C2\SC(=O)NC2=S)cc1 [CBK027996],90.9
8,CC(C)C(=O)Nc1ccc2[nH]cc(C(C(=O)O)N3CCN(c4ccccc4)CC3)c2c1 (stereo not shown) [CBK286645],85.7
9,C=CCNc1nccnc1-c1cccnc1 [CBK037016],101
10,COc1ccc(OCC(F)(F)F)c(C(=O)N2CCSCC2)c1 [CBK005950],83.7
11,CC1CCN(C(=S)NC2CC3CCC2C3)CC1 (stereo not shown) [CBK085998],91.3
12,Cn1c(C2CC(=O)N(c3ccc(Cl)cc3)C2)nc2ccccc21 (stereo not shown) [CBK287783],87.1
13,CSCCCNC(=O)c1ccc2c(c1)nc(N1CC[C@H](O)C1)n2C [CBK306807],107
14,CC1=CCC(C(=O)O)C(C(=O)Nc2cccnc2)C1 (stereo not shown) [CBK265895],92.9
15,COc1cc(C(C)NC(=O)c2ccc(=O)[nH]n2)ccc1OC1CCCC1 (stereo not shown) [CBK298335],89.7
16,CCOc1ccc(-n2c(SCc3nc4ccccc4[nH]3)nc3sc4c(c3c2=O)CCCC4)cc1 [CBK264581],103
17,CN(C)CCN1CCN(CC2(c3ccc(Cl)cc3)CC2)CC1 [CBK282783],103
18,CC(=O)Nc1ccc(-c2ccc(COC3CCN(C(=O)Cc4ccc(Cl)cc4)CC3)cc2)cc1 [CBK149218],94.6
19,CCCOc1ccccc1-c1nnc(SCCC(=O)O)[nH]1 [CBK267182],93.9
20,COc1ccc(/C=N/NC(=O)Cn2nnnc2N)cc1 [CBK262122],84.9
21,O=[N+]([O-])c1ccc(Sc2cccs2)c(C(F)(F)F)c1 [CBK002621],105

row,Compound,"viability at 28.5 h, 10 µM [%]"
1,Fc1ccccc1-c1nc2cnccn2c1NCc1cccs1 [CBK282332],90.3
2,Nc1ncnc(NCCCc2ccccc2)c1[N+](=O)[O-] [CBK267261],88.9
3,CCCCc1c(C)nc2ccc(Br)cc2c1SCCC(=O)O [CBK126915],93.4
4,O=C(NCCSCc1ccco1)Nc1ccc(Cl)cc1 [CBK267869],97.3
5,COc1ccc(-c2cc(C(=O)Nc3ccc(O)cc3)cnc2-c2ccc(F)cc2)cc1 [CBK038026],95.5
6,COc1ccc2[nH]c(C(=O)N3CCn4nc(CO)cc4C3)c(C)c2c1 [CBK307302],106
7,Fc1cc(F)cc(-c2nnc(Cc3nc(-c4ccncc4)no3)o2)c1 [CBK288602],98.6
8,N#Cc1ccc(NC(=O)NCC2(N3CCOCC3)CCSC2)cc1 (stereo not shown) [CBK304546],89.5
9,O=C1Nc2ccc(-c3ccc(Cl)cc3)cc2C(=O)N2CCN(C(=O)CO)C[C@H]12 [CBK289594],96.1
10,O=C(O)c1ccc(S(=O)(=O)c2ccc(C(=O)O)c(C(=O)O)c2)cc1C(=O)O [CBK022872],93.1
11,CC(C)(C)C(=O)N1CCC(C(=O)NC(c2ccc3c(c2)OCO3)c2ccccn2)CC1 (stereo not shown) [CBK060074],110
12,COc1ccc(S(=O)(=O)NC[C@H]2C[C@@H]3CC[N@]2C[C@@H]3CN2CCCCC2)cc1 [CBK288764],98.9
13,O=C(O)CC(C(=O)O)c1ccc(F)cc1 (stereo not shown) [CBK268531],87.6
14,COc1cc(C)c(CN2CCN(C(=O)COc3cc4ccccc4cc3C(=O)O)CC2)cc1OC [CBK296968],99.6
15,O=C(NCc1ccco1)c1ccc2c(c1)OCO2 [CBK262133],94.4
16,C[C@H]1CN2C[C@H](O)CC2CN1Cc1cn(C)c2ccc(F)cc12 (stereo partly shown) [CBK285428],97.6
17,CCOC(=O)CC(=O)CSc1nc2nc(C)cc(C)n2n1 [CBK268469],99.8
18,Cc1ccccc1-c1noc(CNC(Cn2ccnc2)C(C)C)n1 (stereo not shown) [CBK307560],89.1
19,CN(C)CCNCc1ccc(-c2cccc(C(=O)O)c2)o1 [CBK287250],89.9
20,COc1cc([C@@]23CC[C@@H](NC(=O)Nc4cc(F)ccc4F)C[C@@H]2N(C)CC3)ccc1OC(F)F [CBK073834],106
21,O=C(O)CCSc1nc(-c2ccccc2)cc(=O)[nH]1 [CBK287076],102

row,Compound,"viability at 28.5 h, 10 µM [%]"
1,Cn1c(=O)c2c(nc(N3CCOCC3)n2CCC/N=C2\CCCCN2)n(C)c1=O [CBK218356],105
2,Cc1ccc(S(=O)(=O)NC[C@H]2O[C@@H](CC(=O)N3CCOCC3)[C@H](O)[C@@H]2O)cc1 [CBK288924],87.5
3,Cc1nnc(CNC(=O)c2cc(-c3ccc(Cl)cc3)nc3ccccc23)o1 [CBK297717],109
4,CCC(=O)c1cc(F)c(N2CCN(C(=O)c3cccs3)CC2)cc1C [CBK033892],104
5,Cc1cc(C)cc(OCc2nnc(SCC(=O)Nc3c(F)cc(F)cc3Br)n2C)c1 [CBK268604],83.6
6,Cc1nc2sccn2c1-c1csc(Nc2cccc(C(=O)O)c2)n1 [CBK263291B],91.9
7,COc1cc(OC)c(CN2CC3(C)CC2CC(C)(C)C3)cc1Br (stereo not shown) [CBK307074],86.4
8,O=C1N[C@@H](CC2CCCCC2)C(=O)N2CCN(C(=O)c3cccc(F)c3)C[C@H]12 [CBK289599],115
9,O=C(NCCNC(=O)c1ccccn1)c1ccccn1 [CBK265654],101
10,COCCn1ccc(NC(=O)N2CCCC(c3cc(F)ccc3F)C2)n1 (stereo not shown) [CBK305451],79.6
11,CC(C)(C)c1ccc(C(=O)Nc2nsc(-c3ccc(Cl)cc3)n2)cc1 [CBK113176],89.6
12,CN(C)c1cccc(C(=O)N2CC[C@@H](c3ccccc3)[C@H](O)C2)c1 [CBK283713],91.6
13,CCCC(NC(=O)C1C=CCN1S(C)(=O)=O)c1cccs1 (stereo not shown) [CBK282668],92.9
14,CCN(CC)C(=O)c1c(F)ccc(F)c1C(=O)O [CBK022303],85
15,CN(CC(=O)NCc1ccco1)C1CCCCCC1 [CBK254305],97.3
16,O=C(O)CCCc1nc(-c2ccccn2)no1 [CBK010880],94.8
17,Cn1c(=O)n(C)c2cc(CNC3(c4ccccc4)CC3)ccc21 [CBK282746],87.9
18,Cn1ccnc1C1(O)CC2CCC(C1)N2C(=O)c1cccs1 (stereo not shown) [CBK284088],94.2
19,Cc1nc(C)c(C(=O)N2CCCc3ccccc32)s1 [CBK200345],112
20,COc1ccc(CN2CCN(Cc3ccccc3[N+](=O)[O-])CC2)c(OC)c1 [CBK263340],91
21,O=S(=O)(c1cccc2nsnc12)N1CCN(C2CCCCC2)CC1 [CBK268173],96.9

# Same assay, conditions: human, hela cells, % viability, bulk resorufin, single well
row,Compound,"viability at 28.5 h, 10 µM [%]"
1,O=C1NC(=O)C(CCc2ccccn2)(CCc2ccccn2)C(=O)N1c1ccc(F)cc1 [CBK268816],93
